From patent US11560370B1, “5-membered heteroaryl carboxamide compounds for treatment of HBV” (Assembly Biosciences, Inc., priority 2018, dated 2023) come the findings set out here.

The test system of one assay is HBV. Nature of the assay: Viral production from HepAD38 cells, viral load by qPCR of HBV core sequence. The format is cell-based. The following applies: 5 days, supernatant HBV DNA by qPCR, read-out: Viral Load EC50 Activity range. As to the method: Assay Measuring Activity of Test Compounds on Viral Production from HepAD38 Cells
HepAD38 cells grown in a T-150 flask (Corning, cat #: 430825) with Growth Medium (DMEM/F12 (1:1) (Hyclone, cat #: SH30023.02), 1× Pen/Strep (Invitrogen, cat #: 15140-122), 10% FBS (Tissue Culture Biologics, cat #: 101), 250 μg/mL G418 (Alfa Aesar, cat #: J62671), 1 μg/mL Tetracycline (Teknova, cat #: T3320)) were detached with 0.25% trypsin-EDTA to (Invitrogen, cat #: 25200-056). Tetracycline-free treatment medium (15 mL DMEM/F12 (1:1) 1× Pen/step, with 2% FBS, Tet-system approved (Clontech, cat #: 631106) were then added to mix, transferred into a 50 ml conical tube (Falcon, cat #: 21008-918,) and spun at 1300 rpm for 5 min. Pelleted cells were then re-suspended/washed with 50 mL of 1×DPBS (Invitrogen, cat #: 14190-136) 2 times and 50 mL treatment medium twice. HepAD38 cells were then re-suspended with 10 mL of treatment medium, syringed and counted. Wells of 96-well clear bottom TC plate (Corning, cat #: 3904,) were seeded at 50,000 cells/well in 180 μL of treatment medium, and 20 μL of either 10% DMSO (Sigma, cat #: D4540) as controls or a 10× solution of test compounds in 10% DMSO in treatment media was added for a final compound concentration starting at 10 μM, and plates were incubated in 5% CO2 incubator at 37° C. for 5 days.
Subsequently viral load production was assayed by quantitative PCR (qPCR) of the HBV core sequence. PCR reaction mixture containing forward primers HBV-f 5′-CTGTGCCTTGGGTGGCTTT-3′ (IDT DNA), Reverse primers HBV-r 5′-[…]-3′ (IDT DNA), Fluorescent TaqMan™ Probes HBV-probe 5′-FAM/AGCTCCAAA/ZEN/[…]/3IABkFQ-3′ (IDT DNA), 10 μL/well of PerfeCTa® qPCR ToughMix® (Quanta Biosciences, Cat #: 95114-05K), and 6 μL/well of DEPC water (Alfa Aesar, cat #: J62087) was prepared. […] of supernatant was added to 16 μL of the reaction mixture in a qPCR plate (Applied Biosytems, Cat #: 4309849), sealed with a film (Applied Biosystems, Cat #: 4311971), centrifuged for a few seconds, and subsequently run on an Applied Biosystems VIIA7. The PCR mixture was incubated at 45° C. for 5 min, then 95° C. for 10 min, followed by 40 cycles of 10 seconds at 95° C. and 20 seconds at 60° C. Viral load was quantified against known HBV DNA standards by using ViiA™ 7 Software. Viral load in the supernatant from wells with treated cells were compared against viral load in supernatant from DMSO control wells (>3 per plate). Cell viability assay was performed with CellTiter-Glo Luminescent Cell Viability Assay (Promega, cat #: G7573) with modification. Mixed appropriate amount of CellTiter-Glo (CTG) 1×DPBS in a 1:1 ratio, added 100 uL of the mixture to each well followed completely removal of all supernatant in each well without touching cell surface. Incubated the plate at room temperature for 10 min on an orbital shaker, and then read the plate with a plate reader (TECAN M1000 or Envision). EC50 or CC50 values were calculated through curve-fitting of the four-parameter nonlinear-logistic-regression model (GraphPad Prism or Dotmatics). CC50 values were all >10 μM.
As to `COc1cc(-c2ncc[nH]2)ccc1C1CCC(c2nn(C)c(N)c2C(=O)Nc2ccc(F)c(Cl)c2)C1` (single isomer, unassigned) [AIA-352-1, 3-(3-(4-(1H-Imidazol-2-yl)-2-methoxyphenyl)cyclopentyl)-5-amino-N-(3-chloro-4-fluorophenyl)-1-methyl-1H-pyrazole-4-carboxamide], the EC50 lay within 500 to 10000 nM. Same read-out and setting: as for `COc1cc(-c2ncc[nH]2)ccc1C1CCC(c2nn(C)c(N)c2C(=O)Nc2ccc(F)c(Cl)c2)C1` (single isomer, unassigned) [AIA-352-2, 3-(3-(4-(1H-Imidazol-2-yl)-2-methoxyphenyl)cyclopentyl)-5-amino-N-(3-chloro-4-fluorophenyl)-1-methyl-1H-pyrazole-4-carboxamide], the figure is less than 100 nM; as for `Cn1nc(C2CC3CC(O)(CN4CCCCC4)CC3C2)c(C(=O)Nc2ccc(F)c(Cl)c2)c1N` (single isomer, unassigned) [AIA-363-2, 5-Amino-N-(3-chloro-4-fluorophenyl)-3-(5-hydroxy-5-(piperidin-1-ylmethyl)octahydropentalen-2-yl)-1-methyl-1H-pyrazole-4-carboxamide], 100 to 500 nM. Still for that read-out and setting: to `COc1cc(-c2nccn2C)ccc1C1CCC(c2nn(C)c(N)c2C(=O)Nc2ccc(F)c(Cl)c2)C1` (single isomer, unassigned) [AIA-367-2, 5-Amino-N-(3-chloro-4-fluorophenyl)-3-(3-(2-methoxy-4-(1-methyl-1H-imidazol-2-yl)phenyl)cyclopentyl)-1-methyl-1H-pyrazole-4-carboxamide] belongs less than 100 nM; to `Cn1nc(C2CC3CN(C(=O)OC(C)(C)C)CC3C2)c(C(=O)Nc2ccc(F)c(Cl)c2)c1N` (centres unmarked) [AIA-005], less than 100 nM. Regarding `Cn1nc(C2CC3CNCC3C2)c(C(=O)Nc2ccc(F)c(Cl)c2)c1N` (centres unmarked) [AIA-006], the EC50 was in the range of 500 to 10000 nM. Still for that read-out and setting: as for `CC(=O)N1CC2CC(c3nn(C)c(N)c3C(=O)Nc3ccc(F)c(Cl)c3)CC2C1` (centres unmarked) [AIA-007], the figure is less than 100 nM; as for `Cn1nc(C2CC3CC(C(=O)O)CC3C2)c(C(=O)Nc2ccc(F)c(Cl)c2)c1N` (centres unmarked) [AIA-014], less than 100 nM.

Consider `Cn1nc(C2CC3CC(C(N)=O)CC3C2)c(C(=O)Nc2ccc(F)c(Cl)c2)c1N` (centres unmarked) [AIA-015], for which the EC50 is less than 100 nM.

As to `CCOC(=O)C=C1CC2CC(c3nn(C)c(N)c3C(=O)Nc3ccc(F)c(Cl)c3)CC2C1` (centres unmarked) [AIA-017], the EC50 is less than 100 nM. Same read-out and setting: as for `CCOC(=O)CC1CC2CC(c3nn(C)c(N)c3C(=O)Nc3ccc(F)c(Cl)c3)CC2C1` (centres unmarked) [AIA-018], the figure is less than 100 nM; as for `Cn1nc(C2CC3CC(CCO)CC3C2)c(C(=O)Nc2ccc(F)c(Cl)c2)c1N` (centres unmarked) [AIA-019], less than 100 nM.

The assay is the same for the next values; noted with them: Hepatitis B virus, HePAD38, 120 h, 5 days, supernatant HBV DNA by qPCR, read-out: Viral Load EC50 Activity range.
As for `Cn1nc(C2CC3CC(O)(CS(=O)(=O)CCCN4CCNCC4=O)CC3C2)c(C(=O)Nc2ccc(F)c(Cl)c2)c1N` (single isomer, unassigned) [AIA-351-a, 5-Amino-N-(3-chloro-4-fluorophenyl)-3-(5-hydroxy-5-(((3-(2-oxopiperazin-1-yl)propyl)sulfonyl)methyl)octahydropentalen-2-yl)-1-methyl-1H-pyrazole-4-carboxamide], the EC50 is 500 to 10000 nM.

For `Cn1nc(C2CC3CC(O)(CN4CCCCC4)CC3C2)c(C(=O)Nc2ccc(F)c(Cl)c2)c1N` (single isomer, unassigned) [AIA-363-1, 5-Amino-N-(3-chloro-4-fluorophenyl)-3-(5-hydroxy-5-(piperidin-1-ylmethyl)octahydropentalen-2-yl)-1-methyl-1H-pyrazole-4-carboxamide], the EC50 is 100 to 500 nM.

For `Cn1nc(C2CC3CC(O)(CN4CCOCC4)CC3C2)c(C(=O)Nc2ccc(F)c(Cl)c2)c1N` (single isomer, unassigned) [AIA-364-2, 5-Amino-N-(3-chloro-4-fluorophenyl)-3-(5-hydroxy-5-(morpholinomethyl)octahydropentalen-2-yl)-1-methyl-1H-pyrazole-4-carboxamide], the 50% effective concentration (EC50) lay within 100 to 500 nM. Consider `COc1cc(-c2cn(C)cn2)ccc1C1CCC(c2nn(C)c(N)c2C(=O)Nc2ccc(F)c(Cl)c2)C1` (single isomer, unassigned) [AIA-365-2, 5-Amino-N-(3-chloro-4-fluorophenyl)-3-(3-(2-methoxy-4-(1-methyl-1H-imidazol-4-yl)phenyl)cyclopentyl)-1-methyl-1H-pyrazole-4-carboxamide], for which the EC50 is less than 100 nM. Same read-out and setting: to `COc1cc(-c2c[nH]cn2)ccc1C1CCC(c2nn(C)c(N)c2C(=O)Nc2ccc(F)c(Cl)c2)C1` (single isomer, unassigned) [AIA-366-2, 3-(3-(4-(1H-Imidazol-4-yl)-2-methoxyphenyl)cyclopentyl)-5-amino-N-(3-chloro-4-fluorophenyl)-1-methyl-1H-pyrazole-4-carboxamide] belongs less than 100 nM. The same measure, in the same setting: to `COc1cc(-c2nccn2C)ccc1C1CCC(c2nn(C)c(N)c2C(=O)Nc2ccc(F)c(Cl)c2)C1` (single isomer, unassigned) [AIA-367-1, 5-Amino-N-(3-chloro-4-fluorophenyl)-3-(3-(2-methoxy-4-(1-methyl-1H-imidazol-2-yl)phenyl)cyclopentyl)-1-methyl-1H-pyrazole-4-carboxamide] belongs 100 to 500 nM; to `COc1ccc([C@H]2CC[C@@H](c3nn(C)c(N)c3C(=O)Nc3ccc(F)c(Cl)c3)C2)cc1` [AIA-003-A, 5-Amino-N-(3-chloro-4-fluorophenyl)-3-((1R,3S)-3-(4-methoxyphenyl)cyclopentyl)-1-methyl-1H-pyrazole-4-carboxamide], less than 100 nM. Take `COc1ccc([C@H]2CC[C@H](c3nn(C)c(N)c3C(=O)Nc3ccc(F)c(Cl)c3)C2)cc1` [AIA-003-B, 5-amino-N-(3-chloro-4-fluorophenyl)-3-((1S,3S)-3-(4-methoxyphenyl)cyclopentyl)-1-methyl-1H-pyrazole-4-carboxamide]: the EC50 was less than 100 nM.

In the case of `COc1ccc([C@@H]2CC[C@H](c3nn(C)c(N)c3C(=O)Nc3ccc(F)c(Cl)c3)C2)cc1` [AIA-003-C, 5-Amino-N-(3-chloro-4-fluorophenyl)-3-((1S,3R)-3-(4-methoxyphenyl)cyclopentyl)-1-methyl-1H-pyrazole-4-carboxamide], the EC50 lay in the range of 100 to 500 nM.

Turning to `COc1ccc([C@@H]2CC[C@@H](c3nn(C)c(N)c3C(=O)Nc3ccc(F)c(Cl)c3)C2)cc1` [AIA-003-D, 5-amino-N-(3-chloro-4-fluorophenyl)-3-((1R,3R)-3-(4-methoxyphenyl)cyclopentyl)-1-methyl-1H-pyrazole-4-carboxamide], the EC50 was less than 100 nM.

Consider `Cn1nc(C2CC3CC(C)(O)CC3C2)c(C(=O)Nc2ccc(F)c(Cl)c2)c1N` (centres unmarked) [AIA-011, 5-Amino-N-(3-chloro-4-fluorophenyl)-3-(5-hydroxy-5-methyloctahydropentalen-2-yl)-1-methyl-1H-pyrazole-4-carboxamide], for which the EC50 is less than 100 nM. On to `CCN(CC)C1CC2CC(c3nn(C)c(N)c3C(=O)Nc3ccc(F)c(Cl)c3)CC2C1` (centres unmarked) [AIA-012, 5-Amino-N-(3-chloro-4-fluorophenyl)-3-(5-(diethylamino)octahydropentalen-2-yl)-1-methyl-1H-pyrazole-4-carboxamide], for which the EC50 fell in the range of 100 to 500 nM. The same measure, in the same setting: to `Cn1nc(C2CC3CC(N4CCC4)CC3C2)c(C(=O)Nc2ccc(F)c(Cl)c2)c1N` (centres unmarked) [AIA-013, 5-Amino-3-(5-(azetidin-1-yl)octahydropentalen-2-yl)-N-(3-chloro-4-fluorophenyl)-1-methyl-1H-pyrazole-4-carboxamide] belongs 100 to 500 nM; to `CNC(=O)C1CC2CC(c3nn(C)c(N)c3C(=O)Nc3ccc(F)c(Cl)c3)CC2C1` (centres unmarked) [AIA-016, 5-Amino-N-(3-chloro-4-fluorophenyl)-1-methyl-3-(5-(methylcarbamoyl)octahydropentalen-2-yl)-1H-pyrazole-4-carboxamide], less than 100 nM.
